Activity calls are given as the source filed them.
Key:
[1] = biological target: Interleukin-1 receptor-associated kinase 1 (Homo sapiens, UniProt P51617)
[2] = biological target: Ribosomal protein S6 kinase beta-1 (Homo sapiens, UniProt P23443)
[3] = biological target: T1, Dual specificity mitogen-activated protein kinase kinase 6 (Homo sapiens, UniProt P52564)
T1 sequence (P52564 whole entry): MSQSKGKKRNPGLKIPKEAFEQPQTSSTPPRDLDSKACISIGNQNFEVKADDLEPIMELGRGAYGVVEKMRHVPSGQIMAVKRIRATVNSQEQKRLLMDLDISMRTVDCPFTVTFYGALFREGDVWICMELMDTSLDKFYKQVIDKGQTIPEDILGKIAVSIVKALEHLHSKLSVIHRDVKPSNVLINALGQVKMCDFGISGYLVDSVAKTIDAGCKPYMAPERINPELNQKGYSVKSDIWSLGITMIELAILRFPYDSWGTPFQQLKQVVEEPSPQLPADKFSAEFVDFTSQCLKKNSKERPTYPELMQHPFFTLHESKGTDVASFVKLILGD

[4] = biological target: T2, Serine/threonine-protein kinase ULK3 (Homo sapiens, UniProt Q6PHR2)
T2 sequence (Q6PHR2 whole entry): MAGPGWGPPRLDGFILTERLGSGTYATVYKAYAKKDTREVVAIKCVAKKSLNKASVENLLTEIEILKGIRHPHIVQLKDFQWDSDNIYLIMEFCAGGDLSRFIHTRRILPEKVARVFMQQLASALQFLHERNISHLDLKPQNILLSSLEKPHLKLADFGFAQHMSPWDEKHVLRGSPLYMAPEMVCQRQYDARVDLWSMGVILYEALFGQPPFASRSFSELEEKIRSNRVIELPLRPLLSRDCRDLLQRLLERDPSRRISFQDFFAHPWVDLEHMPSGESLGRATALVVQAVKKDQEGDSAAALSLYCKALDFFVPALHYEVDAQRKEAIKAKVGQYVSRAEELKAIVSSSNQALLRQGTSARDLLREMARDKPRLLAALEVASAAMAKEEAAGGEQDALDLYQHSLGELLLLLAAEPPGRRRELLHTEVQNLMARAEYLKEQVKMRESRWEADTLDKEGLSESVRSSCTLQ

[5] = biological target: T3, ATP-dependent RNA helicase DDX1 (Homo sapiens, UniProt Q92499)
T3 sequence (Q92499 whole entry): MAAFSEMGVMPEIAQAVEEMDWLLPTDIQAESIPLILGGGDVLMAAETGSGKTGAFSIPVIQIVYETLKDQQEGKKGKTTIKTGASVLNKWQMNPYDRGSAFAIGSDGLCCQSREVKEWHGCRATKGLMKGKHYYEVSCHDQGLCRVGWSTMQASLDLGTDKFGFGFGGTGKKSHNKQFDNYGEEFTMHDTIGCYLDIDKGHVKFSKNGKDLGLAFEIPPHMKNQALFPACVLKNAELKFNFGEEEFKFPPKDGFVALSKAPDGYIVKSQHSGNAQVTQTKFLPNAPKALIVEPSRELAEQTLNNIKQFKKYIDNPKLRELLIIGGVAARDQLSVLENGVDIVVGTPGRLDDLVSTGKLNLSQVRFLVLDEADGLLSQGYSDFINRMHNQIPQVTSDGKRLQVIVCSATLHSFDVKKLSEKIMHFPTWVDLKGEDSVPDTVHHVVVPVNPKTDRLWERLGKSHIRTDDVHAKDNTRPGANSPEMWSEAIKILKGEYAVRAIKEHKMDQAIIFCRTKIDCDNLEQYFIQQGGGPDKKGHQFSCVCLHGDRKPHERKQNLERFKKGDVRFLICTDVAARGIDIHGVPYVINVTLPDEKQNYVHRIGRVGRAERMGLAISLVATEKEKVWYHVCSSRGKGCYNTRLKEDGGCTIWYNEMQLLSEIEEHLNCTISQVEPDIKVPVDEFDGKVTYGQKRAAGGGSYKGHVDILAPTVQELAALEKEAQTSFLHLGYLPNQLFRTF

[6] = biological target: T4, Dynamin-like GTPase OPA1, mitochondrial (Homo sapiens, UniProt O60313)
T4 sequence (O60313 whole entry): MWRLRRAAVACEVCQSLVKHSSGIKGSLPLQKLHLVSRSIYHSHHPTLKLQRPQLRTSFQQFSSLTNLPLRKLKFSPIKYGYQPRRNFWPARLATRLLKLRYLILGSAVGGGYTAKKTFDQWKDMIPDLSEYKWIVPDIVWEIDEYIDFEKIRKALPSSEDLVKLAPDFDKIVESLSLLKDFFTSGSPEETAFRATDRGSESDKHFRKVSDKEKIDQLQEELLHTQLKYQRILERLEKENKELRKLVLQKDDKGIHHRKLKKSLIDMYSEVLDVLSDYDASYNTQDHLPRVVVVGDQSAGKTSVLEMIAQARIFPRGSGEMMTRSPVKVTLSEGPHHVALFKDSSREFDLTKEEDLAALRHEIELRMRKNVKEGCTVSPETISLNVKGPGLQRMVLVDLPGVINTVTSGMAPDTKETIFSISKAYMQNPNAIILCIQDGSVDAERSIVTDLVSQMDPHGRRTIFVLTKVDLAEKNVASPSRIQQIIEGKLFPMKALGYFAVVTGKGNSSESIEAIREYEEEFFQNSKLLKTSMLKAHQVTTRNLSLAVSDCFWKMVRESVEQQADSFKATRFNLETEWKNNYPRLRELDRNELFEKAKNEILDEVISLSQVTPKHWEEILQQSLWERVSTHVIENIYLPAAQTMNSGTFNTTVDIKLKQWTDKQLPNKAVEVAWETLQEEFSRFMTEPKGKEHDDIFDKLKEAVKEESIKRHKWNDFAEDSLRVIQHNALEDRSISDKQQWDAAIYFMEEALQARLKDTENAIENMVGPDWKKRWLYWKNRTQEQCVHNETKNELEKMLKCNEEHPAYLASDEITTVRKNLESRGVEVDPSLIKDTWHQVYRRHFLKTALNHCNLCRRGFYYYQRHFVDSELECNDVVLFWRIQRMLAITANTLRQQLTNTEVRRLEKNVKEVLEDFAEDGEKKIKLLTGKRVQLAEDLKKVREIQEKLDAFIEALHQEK

[7] = biological target: Structural maintenance of chromosomes protein 2 (Homo sapiens, UniProt O95347)
Sequence of Structural maintenance of chromosomes protein 2 (O95347 whole entry): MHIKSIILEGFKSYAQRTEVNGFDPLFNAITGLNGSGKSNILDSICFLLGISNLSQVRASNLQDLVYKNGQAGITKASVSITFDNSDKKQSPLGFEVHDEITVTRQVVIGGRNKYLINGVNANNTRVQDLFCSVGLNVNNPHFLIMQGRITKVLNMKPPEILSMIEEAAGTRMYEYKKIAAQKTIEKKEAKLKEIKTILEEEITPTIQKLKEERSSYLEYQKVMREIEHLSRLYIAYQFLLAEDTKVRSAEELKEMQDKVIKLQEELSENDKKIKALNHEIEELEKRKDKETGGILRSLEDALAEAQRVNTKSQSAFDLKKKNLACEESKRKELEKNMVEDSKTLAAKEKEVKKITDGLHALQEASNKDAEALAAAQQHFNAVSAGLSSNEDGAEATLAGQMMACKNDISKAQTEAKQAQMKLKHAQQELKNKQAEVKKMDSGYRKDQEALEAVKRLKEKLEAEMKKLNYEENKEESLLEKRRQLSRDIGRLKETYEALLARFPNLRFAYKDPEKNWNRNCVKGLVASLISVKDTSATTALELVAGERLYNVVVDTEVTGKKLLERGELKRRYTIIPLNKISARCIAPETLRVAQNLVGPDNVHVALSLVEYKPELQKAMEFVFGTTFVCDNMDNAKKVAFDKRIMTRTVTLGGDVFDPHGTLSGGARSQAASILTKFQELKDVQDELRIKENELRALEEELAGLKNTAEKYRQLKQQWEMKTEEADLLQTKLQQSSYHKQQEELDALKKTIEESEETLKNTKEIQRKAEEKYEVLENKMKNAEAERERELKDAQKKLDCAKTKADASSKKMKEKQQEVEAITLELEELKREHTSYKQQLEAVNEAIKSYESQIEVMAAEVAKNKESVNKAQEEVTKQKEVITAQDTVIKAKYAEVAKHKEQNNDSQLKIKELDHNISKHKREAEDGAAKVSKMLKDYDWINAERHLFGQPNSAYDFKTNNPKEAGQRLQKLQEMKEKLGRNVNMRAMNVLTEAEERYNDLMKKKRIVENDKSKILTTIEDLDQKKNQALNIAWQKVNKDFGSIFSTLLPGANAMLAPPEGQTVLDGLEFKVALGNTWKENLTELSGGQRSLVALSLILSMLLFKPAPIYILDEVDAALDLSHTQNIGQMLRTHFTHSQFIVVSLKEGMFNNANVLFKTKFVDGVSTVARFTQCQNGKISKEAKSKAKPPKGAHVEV
Note: in the data inactive means no Kd found up to 30 µM.

Sequence of Interleukin-1 receptor-associated kinase 1 (P51617 whole entry): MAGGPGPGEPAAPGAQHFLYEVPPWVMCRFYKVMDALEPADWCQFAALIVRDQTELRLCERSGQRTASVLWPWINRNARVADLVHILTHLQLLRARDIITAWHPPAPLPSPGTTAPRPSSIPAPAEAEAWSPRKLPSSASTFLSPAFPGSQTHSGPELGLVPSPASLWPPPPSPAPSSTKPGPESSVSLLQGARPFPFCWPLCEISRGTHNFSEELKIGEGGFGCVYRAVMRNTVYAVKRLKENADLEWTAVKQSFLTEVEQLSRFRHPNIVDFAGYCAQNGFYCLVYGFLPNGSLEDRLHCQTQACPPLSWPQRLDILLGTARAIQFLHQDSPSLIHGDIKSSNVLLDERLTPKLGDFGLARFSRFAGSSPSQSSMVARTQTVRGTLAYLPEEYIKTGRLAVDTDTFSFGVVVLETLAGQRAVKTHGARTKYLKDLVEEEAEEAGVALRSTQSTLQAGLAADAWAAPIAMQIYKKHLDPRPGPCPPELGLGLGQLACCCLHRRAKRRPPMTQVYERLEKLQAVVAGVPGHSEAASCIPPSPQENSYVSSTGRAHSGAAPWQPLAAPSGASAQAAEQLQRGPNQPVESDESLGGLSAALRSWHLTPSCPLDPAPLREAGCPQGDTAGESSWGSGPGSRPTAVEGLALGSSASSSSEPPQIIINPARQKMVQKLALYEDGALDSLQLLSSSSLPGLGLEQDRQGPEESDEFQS
Sequence of Ribosomal protein S6 kinase beta-1 (P23443 whole entry): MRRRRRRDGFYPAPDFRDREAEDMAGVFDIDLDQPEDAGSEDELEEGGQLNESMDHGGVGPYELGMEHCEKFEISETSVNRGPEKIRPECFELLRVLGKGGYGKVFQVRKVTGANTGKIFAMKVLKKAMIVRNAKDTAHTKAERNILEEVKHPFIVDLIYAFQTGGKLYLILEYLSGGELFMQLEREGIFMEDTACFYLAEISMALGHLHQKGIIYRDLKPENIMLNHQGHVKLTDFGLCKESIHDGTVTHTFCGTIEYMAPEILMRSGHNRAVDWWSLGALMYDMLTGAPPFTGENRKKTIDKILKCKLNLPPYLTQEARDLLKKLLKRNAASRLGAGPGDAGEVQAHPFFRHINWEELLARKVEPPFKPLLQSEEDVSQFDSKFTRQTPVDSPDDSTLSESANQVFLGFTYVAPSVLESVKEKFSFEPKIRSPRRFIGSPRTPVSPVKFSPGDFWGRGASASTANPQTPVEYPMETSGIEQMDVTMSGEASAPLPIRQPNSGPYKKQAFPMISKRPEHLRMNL

Row | SMILES | Kd [1] | Kd [2] | Kd [3] | Kd [4] | Kd [5] | Kd [6] | Kd [7]
1 | CCc1cnn2c(NCc3ccc[n+]([O-])c3)cc(N3CCCC[C@H]3CCO)nc12 [DINACICLIB] | > 30 µM (inactive) | > 30 µM (inactive) | > 30 µM (inactive) | > 30 µM (inactive) | > 30 µM (inactive) | > 30 µM (inactive) | > 30 µM (inactive)
2 | Cn1ncc(Cl)c1-c1cc(C(=O)N[C@H](CN)Cc2cccc(F)c2)sc1Cl [AFURESERTIB] | > 30 µM (inactive) | > 30 µM (inactive) | > 30 µM (inactive) | > 30 µM (inactive) | > 30 µM (inactive) | > 30 µM (inactive) | > 30 µM (inactive)
3 | CC[C@H](Nc1ncnc2[nH]cnc12)c1nc2cccc(F)c2c(=O)n1-c1ccccc1 [IDELALISIB] | > 30 µM (inactive) | > 30 µM (inactive) | > 30 µM (inactive) | > 30 µM (inactive) | > 30 µM (inactive) | > 30 µM (inactive) | > 30 µM (inactive)
4 | O=C(O)[C@]1(Cc2cccc(Nc3nccs3)n2)CC[C@@H](Oc2cccc(Cl)c2F)CC1 [MK-5108] | 1.58 µM (active) | > 30 µM (inactive) | > 30 µM (inactive) | > 30 µM (inactive) | > 30 µM (inactive) | > 30 µM (inactive) | > 30 µM (inactive)
5 | CN(C)C(=O)c1cc2cnc(Nc3ccc(N4CCNCC4)cn3)nc2n1C1CCCC1 [RIBOCICLIB] | > 30 µM (inactive) | > 30 µM (inactive) | > 30 µM (inactive) | > 30 µM (inactive) | > 30 µM (inactive) | > 30 µM (inactive) | > 30 µM (inactive)
6 | C[C@@H]1CN(Cc2ccc(F)cc2)[C@@H](C)CN1C(=O)c1cc2c(C(=O)C(=O)N(C)C)cn(C)c2cc1Cl [TALMAPIMOD] | > 30 µM (inactive) | > 30 µM (inactive) | > 30 µM (inactive) | > 30 µM (inactive) | > 30 µM (inactive) | > 30 µM (inactive) | > 30 µM (inactive)
7 | O=C1NC(=O)/C(=C/c2ccc3nccc(-c4ccncc4)c3c2)S1 [GSK-1059615] | > 30 µM (inactive) | > 30 µM (inactive) | > 30 µM (inactive) | > 30 µM (inactive) | > 30 µM (inactive) | > 30 µM (inactive) | > 30 µM (inactive)
8 | Cn1cc(-c2ccc3nnc(C(F)(F)c4ccc5ncccc5c4)n3n2)cn1 [JNJ-38877605] | > 30 µM (inactive) | > 30 µM (inactive) | > 30 µM (inactive) | > 30 µM (inactive) | > 30 µM (inactive) | > 30 µM (inactive) | > 30 µM (inactive)
9 | CO[C@H]1C[C@@H]2CC[C@@H](C)[C@@](O)(O2)C(=O)C(=O)N2CCCC[C@H]2C(=O)O[C@H]([C@H](C)C[C@@H]2CC[C@@H](OCCO)[C@H](OC)C2)CC(=O)[C@H](C)/C=C(\C)[C@@H](O)[C@@H](OC)C(=O)[C@H](C)C[C@H](C)/C=C/C=C/C=C/1C [EVEROLIMUS] | > 30 µM (inactive) | > 30 µM (inactive) | > 30 µM (inactive) | > 30 µM (inactive) | > 30 µM (inactive) | > 30 µM (inactive) | > 30 µM (inactive)
10 | COc1cc2nccc(Oc3ccc(NC(=O)NC4CC4)c(Cl)c3)c2cc1C(N)=O [LENVATINIB] | – | – | > 30 µM (inactive) | > 30 µM (inactive) | > 30 µM (inactive) | > 30 µM (inactive) | > 30 µM (inactive)
11 | CN1CCN(c2ccc3nc(-c4c(N)c5c(F)cccc5[nH]c4=O)[nH]c3c2)CC1 [DOVITINIB] | – | – | – | – | > 30 µM (inactive) | > 30 µM (inactive) | > 30 µM (inactive)
12 | Cc1cc(Nc2cc(N3CCN(C)CC3)nc(/C=C/c3ccccc3)n2)n[nH]1 [ENMD-2076] | – | – | > 30 µM (inactive) | 0.476 µM (active) | > 30 µM (inactive) | > 30 µM (inactive) | > 30 µM (inactive)
13 | CCn1c(-c2nonc2N)nc2c(C#CC(C)(C)O)ncc(OC[C@H]3CCCNC3)c21 [GSK-690693] | – | – | – | – | > 30 µM (inactive) | > 30 µM (inactive) | 1.11 µM (active)
14 | O=C(Nc1cccc(Cl)c1)Nc1ncc(CCNc2ncnc3ccsc23)s1 [SNS-314] | – | – | > 30 µM (inactive) | > 30 µM (inactive) | > 30 µM (inactive) | > 30 µM (inactive) | > 30 µM (inactive)
15 | C[C@@H](c1ccc2nccn2c1)n1nnc2ncc(-c3cnn(C)c3)nc21 [SAVOLITINIB] | > 30 µM (inactive) | – | > 30 µM (inactive) | > 30 µM (inactive) | > 30 µM (inactive) | > 30 µM (inactive) | > 30 µM (inactive)
16 | Cc1cn(-c2cc(NC(=O)c3ccc(C)c(Nc4nccc(-c5cccnc5)n4)c3)cc(C(F)(F)F)c2)cn1 [NILOTINIB] | – | – | – | – | > 30 µM (inactive) | > 30 µM (inactive) | > 30 µM (inactive)
17 | Nc1nc(N)c2nc(-c3cccc(O)c3)c(-c3cccc(O)c3)nc2n1 [TG100-115] | – | – | – | – | > 30 µM (inactive) | > 30 µM (inactive) | > 30 µM (inactive)
18 | COC(=O)[C@@]1(O)C[C@H]2O[C@]1(C)n1c3ccccc3c3c4c(c5c6ccccc6n2c5c31)C(=O)NC4 [K-252A] | > 30 µM (inactive) | > 30 µM (inactive) | – | 0.107 µM (active) | > 30 µM (inactive) | > 30 µM (inactive) | > 30 µM (inactive)
19 | Cc1nc(N)sc1-c1ccnc(Nc2ccc(N3CCOCC3)cc2)n1 [CYC-116] | – | – | > 30 µM (inactive) | 0.801 µM (active) | > 30 µM (inactive) | > 30 µM (inactive) | > 30 µM (inactive)
20 | O=C(c1ccc(F)c(F)c1Nc1ccc(I)cc1F)N1CC(O)([C@@H]2CCCCN2)C1 [COBIMETINIB] | > 30 µM (inactive) | – | > 30 µM (inactive) | > 30 µM (inactive) | > 30 µM (inactive) | > 30 µM (inactive) | > 30 µM (inactive)
21 | C=CC(=O)N1CCC(Oc2cc3c(Nc4ccc(Cl)c(Cl)c4F)ncnc3cc2OC)CC1 [POZIOTINIB] | > 30 µM (inactive) | > 30 µM (inactive) | > 30 µM (inactive) | > 30 µM (inactive) | – | > 30 µM (inactive) | > 30 µM (inactive)
